Reference: patent publication EP0530446A2, “Use of sulfur containing carboxylic acids for combatting pathophysiologic excitatory disorders and related diseases as well as allergic diseases and their preparation as medicament” (ASTA Medica Aktiengesellschaft, priority 1991, dated 1993)

Columns and labels:
[1] = tested on: PAF (Platelet-activating-Factor)-Acether-Ödem; experiment: PAF-acether paw oedema in the rat; type: in vivo, Ratte; settings: 0.5 h before PAF-acether 2 ug/animal subplantar, oedema read 1 h later
Protocol: Die antiallergische Wirkung wird unter anderem durch Untersuchungen im PAF (Platelet-activating-Factor)-Acether-Ödem an der Ratte belegt.
Prinzip der Methode ist es, durch subplantare Injektion von PAF-Acether 2 ug/Tier ein lokal begrenztes Ödem beziehungsweise eine Entzündung an der Rattenpfote zu erzeugen. Die Untersuchungen werden in Anlehnung an die Methode nach SWINGLE und REITER (Agents and actions, 18, 358-365, (1986)) durchgeführt. Die Tiere erhalten die Prüfsubstanzen 0,5 Stunden vor der Auslösung des Ödems verabreicht. 1 Stunde danach wird das Ödem plethysmographisch ermittelt.

[2] = tested on: EEG der Ratte; experiment: Tele-Stereo-EEG in the rat: prevention of EEG changes caused by hypoglycaemic or ischaemic insult; type: in vivo; settings: 30 mg/kg i.p., compared with pre-dose value (Vorwert)
Protocol: Die erfindungsgemäßen Verbindungen der Formel zeigen beispielsweise im Modell zum Nachweis der Prevention der durch hypoglykämischen beziehungsweise ischämischen Insult verursachte Veränderungen im EEG der Ratte (im Vergleich zum Vorwert) bei der parenteralen Applikation (i.p. = intraperitoneal) bei 30 mg/kg (i.p.) des Racemats der alpha-Liponsäure 118 %, bei 30 mg/kg i.p. des (+)-Enantiomers 157 % und bei 30 mg/kg i.p. des (-)-Enantiomers 85 % Änderung der Leistungsdichte des beta-2-Bandes im frontalen Kortex.
Diese Untersuchung erfolgte analog der Methode Dimpfel et al, Neuropsychobiology 16: 163 - 168, (1986) mit der Änderung, daß die Ableitung vom Hippokampus anstelle des Thalamus erfolgt. (Radioelectroencephalography (Tele-Stereo-EEG) in the rat as a pharmacological model to differentiate the central action of flupirtine from that of opiates, diazepam and phenobarbital)
Männliche Fischer-344 Ratten wurden im Alter von 4 bis 5 Monaten 4 bipolar konzentrische Elektroden zusammen mit einem Mikrostecker auf einer gemeinsamen Basisplatte implantiert. Der Stecker diente der Aufnahme eines 4-Kanal-Senders zur telemetrischen Übertragung der aus frontalem Kortex, Hippokampus, Striatum und Formatio Reticularis abgeleiteten Feldpotentiale. Die Signale wurden auf einem Pro Science Computer System in Echtzeit einer Fast Fourier Transformation unterworfen und die Leistungsdichtespektren jeweils über 15 Minuten gemittelt. Die Unterteilung der Spektren in 6 verschiedene Frequenzbereiche erlaubte die Erfassung pharmakonspezifischer Veränderungen in Bezug auf die jeweils vor der Applikation gemessenen Vorwerte innerhalb dieser Frequenzbänder.
Zum Applikationsprotokoll der Substanzen: Die Substanzen wurden intraperitoneal 45 Minuten nach Beginn der Messungen (Vorwert) injiziert. Fünf Minuten später wurden die Messungen wieder gestartet, mindestens über die nächsten 2 Stunden kontinuierlich analysiert und in 15-minütigen Perioden zusammengefaßt. Die Testsubstanzen (zum Beispiel Thioctsäure) wurden in einer Dosierung von 30 mg/kg appliziert. […]

[3] = tested on: Hippocampusschnitt-Präparat von ethanolabhängigen Ratten; experiment: Hippocampal slice preparation of ethanol-dependent rats after 16 h withdrawal, excitability at decreasing Mg++; settings: slices 16 h after ethanol withdrawal (5 g/kg/day for 2 weeks), tested at 246 pg/ml
Description: Die bei Ratten 16 Stunden nach dem Absetzen von Ethanol (5 g/kg/Tag Ethanol über einen Zeitraum von 2 Wochen) aus dem Hippocampus entnommenen Präparate wurden abnehmenden Magnesiumkonzentrationen im Superfusionsmedium ausgesetzt, um Plasizitätsveränderungen bei der Erregbarkeit der Pyramidenzellen nachweisen zu können. Die elektrisch ausgelösten und spontanen Entladungen wurden in Abwesenheit und Gegenwart der S(-)-Form der a-Liponsäure beobachtet.
Zwei Gruppen ausgewachsener, männlicher CD-Ratten (Charles River Wiga) erhielten handelsübliches Rattenfutter ad libitum. Das Trinkwasser wurde durch den Zusatz von 1 g Glukose/Liter gesüßt. Eine der Gruppen erhielt Wasser, das 5 % Ethanol enthielt. Die von den Tieren aufgenommene Wassermenge wurde täglich bestimmt und betrug in beiden Gruppen durchschnittlich 40 ml. Folglich nahm die Ethanolgruppe während des zweiwöchigen Versuches - ausgehend von ihrem durchschnittlichen Gewicht - innerhalb von 24 Stunden etwa 5 g/kg Ethanol auf.
Den Tieren wurde das modifizierte Trinkwasser über einen Zeitraum von 2 Wochen verabreicht. Außerdem wurde das Körpergewicht täglich ermittelt, wobei zwischen den beiden Gruppen keine Differenz beobachtet werden konnte. 16 Stunden vor Beginn der Messung der Erregbarkeit ex vivo erhielten die mit dem Ethanol behandelten Tiere ebenfalls glukosehaltiges Trinkwasser, um den Entzug einzuleiten. […]

[4] = tested on: Hippocampusschnitt-Präparat von morphiumabhängigen Ratten; experiment: Hippocampal slice preparation of morphine-dependent rats after 16 h withdrawal, excitability at decreasing Mg++; settings: slices 16 h after morphine withdrawal (2 mg/kg s.c. twice daily for 2 weeks), tested at 100 µM
Protocol: Die bei Ratten 16 Stunden nach dem Entzug von Morphium (2 mg/kg Morphium subcutan, 2 x täglich über 2 Wochen lang) aus dem Hippocampus entnommenen Präparate wurden abnehmenden Magnesiumkonzentrationen im Superfusionsmedium ausgesetzt, um Platizitätsveränderungen bei der Erregbarkeit der Pyramidenzellen nachweisen zu können. Die elektrisch ausgelösten und spontanen Entladungen wurden in Abwesenheit und Gegenwart der S(-)-Form der a-Liponsäure beobachtet. […] Hierdurch ergibt sich eine Anwendung/Verwendung von a-Liponsäure bei Entziehungserscheinungen bei Drogenabhängigkeit.
Zwei Gruppen ausewachsener, männlicher CD-Ratten (Charles River Wiga) erhielten handelübliches Rattenfutter ad libitum. In den beiden Versuchwochen erhielten die Tiere der ersten Gruppe zweimal täglich 2 mg/kg Morphium. Der Kontrollgruppe wurde Kochsalzlösung injiziert. Das Körpergewicht wurde täglich registriert. 16 Stunden vor Beginn der Messung der Erregbarkeit ex vivo erhielten die mit Morphium behandelten Tiere keine Injektion mehr, um den Entzug einzleiten.
Die Tiere wurden in leichter Narkose ausgeblutet, das Gehirn wurde in toto entnommen und die Formatio hippocampi unter stereomikroskopischer Kontrolle isoliert. […]

| Compound | Ödemhemmung in % ([1]; 25 mg/kg intraperitoneal) | Ödemhemmung in % ([1]; 50 mg/kg intraperitoneal) | Änderung der Leistungsdichte des beta-2-Bandes im frontalen Kortex [2] | ausgelöste Entladungen [3] | spontane Entladungen ([4]; decreasing Mg++) | Spitzenamplituden der Population ([4]; lower Mg++ concentrations) | Ödemhemmung in % ([1]; 200 mg/kg intraperitoneal) |
| --- | --- | --- | --- | --- | --- | --- | --- |
| O=C(O)CCCCC1CCSS1 (racemic) [α-Liponsäure, reference compound] | 14% | 16% | 118% |  |  |  |  |
| O=C(O)CCCC[C@@H]1CCSS1 [(+)-Enantiomers, R(+)-a-Liponsäure] |  |  | 157% |  |  |  |  |
| O=C(O)CCCC[C@H]1CCSS1 [(-)-Enantiomers, S(-)-a-Liponsäure] |  |  | 85% | vollständige Dämpfung | abzuschwächen | auf Normalwerte zu senken |  |
| O=C(O)CCCCC(S)CCS (stereo not shown) [Dihydroliponsäure, 6,8-Dimercapto-octansäure] |  | 63% |  |  |  |  | 73% |
